The test system of one series is HepG2 cells. Description: MTT cytotoxicity assay in HepG2 cells after EROD. The series is classed as cell-based, human. As for the experimental part: (§1) The formation of resorufin is quantified by fluorometry with a fluorescence plate reader. Fluorescence is determined at λex 570 nm and λem 590 nm. The amount of resorufin is calculated from a standard curve generated using 0 to 1 μM resorufin in water at ½ log dilutions. The remaining (i.e. all cells present at the beginning of analysis, since only supernatant is taken to assay EROD) live cells are subsequently utilized for the MIT cytotoxicity assay. MTT is made up in serum-free medium at 5 mg/ml. then added to the cells giving a final concentration of 10% (0.5 mg/ml MTT final) then incubated for 2 h. The medium is carefully removed, then MTT formazan is solubilized by adding 200 μl of DMSO and subsequently mixed on a plate shaker. The absorbance is measured spectra photometrically at 550 nm and background absorbance at 690 nm is subtracted.

Series [1] has as its system CYP1A1. Put plainly: Induction of CYP1A1 enzyme in HepG2 cells, EROD assay. It counts as cell-based, human. The note with it: human, probe 7-ethoxyresorufin (8 μM). How it is done:
as §1, with “subtracted. A standard curve generated using MIT formazan (dissolved in DMSO) from O—200 μM (0, 2, 5, 10, 20, 50, 100, 200 μM) is used to calculate the final experimental values which are then expressed as (wnol resarufin/mol MTT formazan) or as fold-Induction compared to solvent.” for “subtracted.”

A further series relates to sebaceous glands. Put plainly: Mouse ear assay for determination of sebaceous gland prevalence. As to conditions: C57BL/6 mice, ears, 1% solution in DMSO:acetone 50:50 twice a day for five days, vs controls. It counts as in vivo. As for the experimental part:
C57BL/6.I male mice (Harlan Models), approximately 4-5 weeks of age, body weight 20-30 g, were acclimatized (individually housed) for 5 days in a 12 hour light/dark cycle standard laboratory environment (T=20-24° C., relative humidity 30-70%, 15-20 air changes per hour) with access to water and standard rodent chow (Harlan Teklad 2014C supplied by Harlan Laboratories Models, S.L.) ad libitum. Animals were anesthetized with isoflurane and the test article (80 ul, 1% solution in DMSO:acetone 50:50) was administered to the outer surface of each of the ears of between 2 and 5 mice twice a day for five days by dermal application using a micropipette tip (a little volume of the solution was also applied on the inner side of the ears). All animals were monitored daily for reaction to the treatment, signs of illness, and behavioral changes. Body weights were recorded before the first administration and immediately prior to sacrifice. Approximately 12 to 16 hours after the final administration on day 5 the mice were sacrificed by i.p. injection of sodium pentobarbital (200 mg/kg) and the ears were collected. Each ear was sectioned into two halves. For each animal, one-half of one ear was fixed, in neutral phosphate-buffered 4% formaldehyde solution (4% formalin). This trimmed section of the ear was then processed, embedded in paraffin wax and stored at room temperature. […]

Series [2] concerns CYP1A1. Put plainly: Induction of CYP1A1 enzyme in human cultured sebocytes, EROD assay. The series is classed as cell-based. The note with it: cultured sebocytes, probe 7-ethoxyresorufin (8 μM). As for the experimental part: Cells are seeded at between 1×10^4 and 2.5×10^4 cells/well in a 96-well microtitre plate. […] 100 μl of medium is then transferred to a fresh black 96-well plate and 130 μl methanol added. The formation of resorufin is quantified by fluorometry with a fluorescence plate reader. Fluorescence is determined at λex 570 nm and λem 590 nm. The amount of resorufin is calculated from a standard curve generated using 0 to 1 μM resorufin in water at ½ log dilutions. The remaining (i.e. all cells present at the beginning of analysis, since only supernatant is taken to assay EROD) live cells are subsequently utilized for the MU cytotoxicity assay. MU is made up in serum-free medium at 5 mg/mi. then added to the cells giving a final concentration of 10% (0.5 mg/ml MIT final) then incubated for 2 h. The medium is carefully removed, then MIT formazan is solubilized by adding 200 μl of DMSO and subsequently mixed on a plate shaker. The absorbance is measured spectrophotometrically at 550 nm and background absorbance at […] is subtracted. A standard curve generated using MTT formazan (dissolved in DMSO) from O—200 μM (0, 2, 5, 10, 20, 50, 100, 200 μM) is used to calculate the final experimental values which are then expressed as (μmol resorufin/mol MTT formazan) or as fold-induction compared to solvent.

The subject of a further series is human sebocyte cells. Put plainly: MTT cytotoxicity assay in human cultured sebocytes after EROD. It counts as cell-based. As for the experimental part: The essential methodology for culture and handling of human cultured sebocytes has been described in earlier examples for HEPG2 and NHK cells. Cells are seeded at between 1×10^4 and 2.5×10^4 cells/well in a 96-well microtitre plate. […] The formation of resorufin is quantified by fluorometry with a fluorescence plate reader. Fluorescence is determined at λex 570 nm and λem 590 nm. The amount of resorufin is calculated from a standard curve generated using 0 to 1 μM resorufin in water at ½ log dilutions. The remaining (i.e. all cells present at the beginning of analysis, since only supernatant is taken to assay EROD) live cells are subsequently utilized for the MU cytotoxicity assay. MU is made up in serum-free medium at 5 mg/mi. then added to the cells giving a final concentration of 10% (0.5 mg/ml MIT final) then incubated for 2 h. The medium is carefully removed, then MIT formazan is solubilized by adding 200 μl of DMSO and subsequently mixed on a plate shaker. The absorbance is measured spectrophotometrically at 550 nm and background absorbance at […] is subtracted. A standard curve generated using MTT formazan (dissolved in DMSO) from O—200 μM (0, 2, 5, 10, 20, 50, 100, 200 μM) is used to calculate the final experimental values which are then expressed as (μmol resorufin/mol MTT formazan) or as fold-induction compared to solvent.
On the technique in general: Formazan colour is commonly taken as a measure of viable cells.

In the case of `O=c1c(-c2ccccc2)coc2ccc3ccccc3c12` [Compound B], the Toxicity threshold in the series on HepG2 cells and with human sebocyte cells was above 30 µM throughout. For the same molecule, the EC50 (commonly the concentration needed to bring the measured effect to its halfway point) at 24 h worked out at 1000 nM in the series on CYP1A1 [1] and 50 nM in the series with CYP1A1 [2]. The “number of differentiated sebocytes” value in the series with sebaceous glands was “reduction”. Moreover, the “number of sebaceous glands” value with sebaceous glands is “clear reduction”.

`COc1ccccc1-c1coc2ccc3ccccc3c2c1=O` [Compound F]: the values for the Toxicity threshold with HepG2 cells and in the series on human sebocyte cells were above 30 µM and 50 µM, respectively. Further, the EC50 at 24 h worked out at 2000 nM with CYP1A1 [1] and 200 nM in the series on CYP1A1 [2].

For `COc1cccc(-c2coc3ccc4ccccc4c3c2=O)c1` [Compound G], the Toxicity threshold in the series with HepG2 cells amounted to 100 µM; in the series on human sebocyte cells, 30 µM. The EC50 at 24 h with CYP1A1 [1] turned out to be 2000 nM; with CYP1A1 [2] it was 250 nM.

Take `O=c1c(-c2cccc(O)c2)coc2ccc3ccccc3c12` [Compound H]: the Toxicity threshold is above 100 µM with HepG2 cells and above 30 µM with human sebocyte cells. Further, the EC50 at 24 h with CYP1A1 [1] came out at 1500 nM; in the series on CYP1A1 [2] it was 250 nM.

Regarding `O=c1c(-c2ccc(O)cc2)coc2ccc3ccccc3c12` [Compound J], the Toxicity threshold is 100 µM with HepG2 cells and above 30 µM with human sebocyte cells. The EC50 at 24 h in the series on CYP1A1 [1] worked out at 1500 nM; in the series on CYP1A1 [2], 50 nM.

For the origin of these results see patent US20180118707A1, “BETA-NAPHTHOISOFLAVONES, COMPOSITIONS CONTAINING, AND USES OF, SAME” (Thesan Pharmaceuticals, Inc., priority 2015, published 2018).
